{"source": "paper PMC8599359", "about": "(Molecular Neurobiology, 2021)", "key": {"[1]": {"test_system": "C3H/HeJ mice pups, hippocampus", "assay": "Magnetic resonance spectroscopy (1H MRS) of pups", "type": "in vivo, mouse", "method": "After DTI measurements, the same animals were scanned by ^1H MRS to measure metabolite concentrations. N-Acetylaspartate (NAA), total choline (tCho), and total creatine (tCre) were measured in HI region. Animals from both groups, DTG and control, were scanned. SemiLASER localization with timing parameters (TE/TR = 40/4000 ms, 576 averages, 2048 points) was used to obtain MRS data. Voxel was located on HI. All first- and second-order shim terms were automatically adjusted using MAPSHIM® (Bruker, Billerica, MA). A final shim performed manually, if necessary, to achieve a water line width of 10–15 Hz. The water signal was suppressed by variable power radiofrequency (RF) pulses with optimized relaxation delays (VAPOR). MRS data were quantified using LCModel (LCMODEL Inc., CA). Results were expressed as a percentage of the sum of all 3 metabolites as a semi-quantitative method for reporting metabolite concentrations in institutional units (I.U.). Glycerophosphocholine and phosphocholine were added and reported as total choline-containing compounds."}, "C3H/HeJ mice pups, brain": {"test_system": "C3H/HeJ mice pups, brain", "assay": "Diffusion tensor imaging of pups", "type": "in vivo, mouse", "method": "In vivo bioimaging (diffusion tensor imaging (DTI) and magnetic resonance spectroscopy (^1H MRS)) was performed using a 7 Tesla/16 cm Bruker PharmaScan or a 7 Tesla 21 cm Bruker Biospec (Karlsure, Germany) MRI/MRS system. At PND 28–34, DTI was performed on live mice pups to determine microstructural changes. Animals from both DTG- and vehicle-treated (control) groups were scanned. Pups (male and female) were randomly selected from each dam. As described in our previous work, a 4-segment echo planar imaging (EPI) readout with a balanced, rotationally invariant and alternating polarity icosahedral scheme (12 directions) and b value = 800 s/mm^2 were utilized. Diffusion Toolkit (http://trackvis.org/dtk/) was used to calculate DTI metrics, fractional anisotropy (FA). Region of interest (ROI) analysis was performed to measure DTI metrics on hippocampus (HI), cortex (CT), striatum (ST), thalamus (TH), hypothalamus (HY), and cerebellum (CE)."}, "[2]": {"test_system": "pregnant C3H/HeJ mice, embryos", "assay": "Embryo phenotype assessments", "type": "in vivo, mouse", "source_text": "For all animal experiments, C3H/HeJ (10–12 weeks of age, male and female) were purchased from the Jackson Laboratory (Bar Harbor, ME), and were housed in microisolator cages containing autoclaved corncob bedding, and maintained on a 12‐h light‐dark cycle in climate‐controlled laboratory animal facilities approved by the University of Nebraska Medical Center Institutional Animal Care and Use Committee (IACUC). Mice were given free access to irradiated rodent feed (TD. 180,911, Envigo Teklad diet, Madison, WI) and sterile water. Animals were acclimated to the environment for approximately 7–14 days to determine that they were healthy based on observed behavior and weight gain. A female was placed with a male overnight for the purpose of timed matings. The following morning males were removed from the cages and positive vaginal plugs were identified. […] The time of conception was considered to be midnight on the evening of the mating. Treatment of plugged females was started at the morning of the day of plug detection (gestation day (GD) 0.5). […] Pregnant dams were randomly assigned to DTG or vehicle (control) group. Weight gain in dams was measured on GD 0.5, 5.5, 10.5, and 15.5. At GD 16.5, dams were humanely euthanized, and embryos and placenta were harvested. Embryos were evaluated for NTDs. At the time of harvest, the total number of implants (litter size, resorption rates, or viable embryos) was recorded for each pregnancy. Further, whole brain tissues from normal viable embryos were isolated and processed for examination of MMP expression and activity."}, "MMP-2": {"biological_target": "T1, MMP-2 (Homo sapiens, UniProt P08253)", "T1 sequence (P08253 110-660)": "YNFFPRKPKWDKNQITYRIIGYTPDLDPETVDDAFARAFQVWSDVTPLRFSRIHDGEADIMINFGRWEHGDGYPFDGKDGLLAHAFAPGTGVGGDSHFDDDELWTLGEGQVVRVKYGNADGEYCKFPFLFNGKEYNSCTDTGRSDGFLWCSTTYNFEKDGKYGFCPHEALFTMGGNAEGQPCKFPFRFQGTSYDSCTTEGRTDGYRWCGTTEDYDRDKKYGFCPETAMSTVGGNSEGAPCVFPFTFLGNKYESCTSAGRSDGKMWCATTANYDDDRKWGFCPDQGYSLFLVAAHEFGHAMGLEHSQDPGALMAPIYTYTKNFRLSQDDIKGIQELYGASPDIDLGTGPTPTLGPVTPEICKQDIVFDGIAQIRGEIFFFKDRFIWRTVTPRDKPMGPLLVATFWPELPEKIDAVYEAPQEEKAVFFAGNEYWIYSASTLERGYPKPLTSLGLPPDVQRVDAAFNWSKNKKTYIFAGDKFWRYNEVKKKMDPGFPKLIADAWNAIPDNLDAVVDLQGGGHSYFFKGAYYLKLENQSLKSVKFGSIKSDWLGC", "assay": "Fluorometric substrate assay (MMP inhibitor profiling kit)", "type": "biochemical", "design": "purchased Enzo life sciences BML-AK308", "method": "Kit contained a panel of ten MMPs and a quenched fluorogenic substrate OMNIMMP® RED. Composition of a quenched fluorogenic substrate was TQ3-GABA-Pro-Cha-Abu-Smc-His-Ala-Dab(6’-TAMRA)-Ala-Lys-NH2 [TQ3 = quencher; GABA = 4-aminobutyric acid; Cha = L-cyclohexylalanine; Abu = 2-aminobutyric acid; Smc = S-methyl-L-cysteine; Dab = 2,4-diaminobutyric acid; 6’-TAMRA = 6’-tetramethylrhodamine]. Experiment was performed as per instructions provided in the manufacturer’s manual. The assays were performed in a 96-well, black, flat, microplate format. The compound NNGH was provided as a prototypic control inhibitor. […] Untreated MMPs were used as control. The experiment was performed in biological triplicates. After 60-min incubation, fluorogenic substrate OMNIMMP® RED was added to each reaction/well to start the reaction. The plate was continuously read at Ex/Em = 545/576 nm (cutoff at 570 nm) for 30 min with 1-min time intervals at constant temperature, 37 °C, using Molecular Devices SpectraMax M3 plate reader with SoftMax Pro 6.2 software."}, "[3]": {"conditions": "GD 16.5, 50 mg/kg/day, of 103 viable"}, "[4]": {"conditions": "GD 16.5, 50 mg/kg/day, of 130 implants"}}, "data": [{"smiles": "C[C@@H]1CCO[C@H]2Cn3cc(C(=O)NCc4ccc(F)cc4F)c(=O)c(O)c3C(=O)N12", "note": "[DTG, Dolutegravir]", "values": [{"measurement": "NAA levels in hippocampus vs control", "setting": "[1]; PND 28-34, all pups", "result": "significantly reduced"}, {"measurement": "tCho levels in hippocampus vs control", "setting": "[1]; PND 28-34, all pups", "result": "significant increase"}, {"measurement": "tCre (internal reference) in hippocampus vs control", "setting": "[1]; PND 28-34, all pups", "result": "No differences"}, {"measurement": "NAA in hippocampus vs control", "setting": "[1]; female pups", "result": "significantly reduced"}, {"measurement": "fractional anisotropy (FA) values vs control", "setting": "C3H/HeJ mice pups, brain; PND 28-34, all six brain regions (HI, CT, ST, TH, HY, CE)", "result": "significantly lower"}, {"measurement": "fractional anisotropy (FA) values vs control", "setting": "C3H/HeJ mice pups, brain; female pups, HI", "result": "trend of decrease"}, {"measurement": "fractional anisotropy (FA) values vs control", "setting": "C3H/HeJ mice pups, brain; female pups, TH", "result": "significant reduction"}, {"measurement": "fractional anisotropy (FA) values vs control", "setting": "C3H/HeJ mice pups, brain; male pups, HI, CT, ST and HY", "result": "significantly reduced"}, {"measurement": "fractional anisotropy (FA) values vs control", "setting": "C3H/HeJ mice pups, brain; male pups, TH and CE", "result": "trend of reduced FA values"}, {"measurement": "maternal body weight gain during gestation", "setting": "[2]; 50 mg/kg/day oral GD 0.5-15.5, DTG vs control", "result": "No differences"}, {"measurement": "Abnormal/litter", "setting": "[2]; GD 16.5, 50 mg/kg/day", "result": 0.05}, {"measurement": "Implants/litter (mean litter size)", "setting": "[2]; GD 16.5, 50 mg/kg/day", "result": 7.6}, {"measurement": "Resorptions/litter", "setting": "[2]; GD 16.5, 50 mg/kg/day", "result": 1.5}, {"measurement": "Total resorptions (%)", "setting": "[2]; GD 16.5, 50 mg/kg/day", "result": 20.76, "unit": "%"}, {"measurement": "Viable embryos/litter", "setting": "[2]; GD 16.5, 50 mg/kg/day", "result": 6.05}, {"measurement": "Total implants", "setting": "[2]; GD 16.5, 50 mg/kg/day, 17 litters", "result": 130}, {"measurement": "Viable embryos abnormal, exencephaly (number)", "setting": "[2]; [3]", "result": 1}, {"measurement": "Viable embryos normal (number)", "setting": "[2]; [3]", "result": 102}, {"measurement": "Total resorptions (number)", "setting": "[2]; [4]", "result": 27}, {"measurement": "Total viable embryos (number)", "setting": "[2]; [4]", "result": 103}, {"measurement": "inhibitory effect compared to doxycycline", "setting": "MMP-2; MMP-2, 20 µM", "result": "higher inhibitory effect"}, {"measurement": "IC50", "setting": "MMP-2; human recombinant MMP-2, 60 min preincubation, four-parameter fit", "result": 16.9, "unit": "µM"}]}]}
